What all share (assay type): biochemical, guinea pig
The test system of experiment [1] is PDE3. Put plainly: Inhibition of cyclic nucleotide PDE activity (Assay I), PDE3. Particulars: mean ± S.E.M. (n); read-out: IC50 on phosphodiesterase isozyme 3. The method, then:
(§1) Under a protocol approved by the Animal Care and Use Committee of Taipei Medical University, five male guinea pigs (Hartley), weighing 500-600 g, were sacrificed. The lungs (15 g) or hearts (4 g) taken therefrom were chopped into small pieces and homogenized with a glass/teflon homogenizer (Glas-Col, Terre Haute, Ind., USA) in 10 volumes of cold medium (pH 6.5) containing 20 mM Bis-Tris, 2 mM benzamidine, 2 mM EDTA, 50 mM sodium chloride, 0.1 mM phenylmethanesulfonyl fluoride (PMSF), and 1 mM dithiothreitol. At 4° C., the homogenate was centrifuged at 170 g for 15 min, and the supernatant thereof was then re-centrifuged at 40,000 g for 30 min. […] The column was washed with two bed volumes of homogenate buffer to remove unbound material, where the resin beads therein will bind with proteins, such as PDE proteins. Proteins bound to the Q-sepharose beads were eluted with various concentrations (0.23, 0.34, 0.44, 0.69, and 1.00 M) of NaCl dissolved in homogenate buffer (for each concentration, 40-50 mL elution buffer were applied) at a flow rate of 30 ml/h. Fractions (3 ml each) were collected, and ethylene glycol (EG) was added thereto until a final concentration of 30% (v/v). And then the samples were frozen at −70° C.
(§2) The activities of PDE1-5 in the homogenate were measured with a two-step procedure according to the method of Thompson and Appleman, using cAMP with [^3H]-cAMP or cGMP with [^3 H]-cGMP as substrates. The PDE enzyme prepared (25 μl) with 10 μl inhibitor or the solvents therefor was incubated for 30 min at 37° C. in a total assay buffer, where the final volume of the assay is amounted to 100 μl. In accordance with the features of the PDE isozymes, the assay buffer contains 50 mM Tris/HCl (pH 7.4), 3 mM MgCl2, 1 mM dithiothreitol, and 0.05% BSA, and optionally contains 1 uM cAMP with 0.2 μCi [^3H]-cAMP as a substrate alone or in the presence of 0.1 unit calmodulin with 10 μM CaCl2, or 5 μM cGMP, and 1 μM cGMP with 0.2 μCi [^3H]-cGMP as another substrate alone or in the presence of 0.1 unit calmodulin with 10 μM CaCl2.
(§3) The PDE enzyme and the inhibitors (or their solvent) therefor were mixed and incubated on ice for 30 min previously, and then mixed with the assay buffer. The assay was initiated by transferring the mixture to a water bath at 37° C. Following the other 30 min incubation, the reaction was stopped by transferring the reaction vessel to a bath of boiling water for 3 min. After cooling on ice, 20 μl of the 1 mg/ml of Crotalus atrox venom was added to the reaction mixture, and the mixture was incubated at 37° C. for 10 min. The uncatalyzed substrates, such as cAMP, [^3H]-cAMP, cGMP, or [^3H]-cGMP were removed by the addition of 500 μl of a 1-in-1 Tris-HCl (40 mM) buffer suspension of Dowex resin (1×8-200) with incubation on ice for 30 min, since the bindings of the cyclic nucleotides and the resin. Each tube was then centrifuged for 2 min at 6000 rpm, and 100 μl of the supernatant was removed and counted by a β-counter for calculating the enzyme (PDEs) activity.
(§4) The IC50 values of flavonoids and various reference drugs were calculated using non-linear regression analysis by the software SigmaPlot 7.0 (Sigma Chemical, St. Louis Mo., USA). All values are shown as the mean±S.E.M. Differences among values, which are equal or greater to three groups, were statistically calculated by one-way analysis of variance (ANOVA), and then determined by the least significant difference (LSD). The difference between two values, however, was determined by use of Student's unpaired t-test. Differences were considered statistically significant if the P-value was less than 0.05.

Experiment [2] addresses T1, PDE2 (Cavia porcellus, UniProt A0A286XUV5).
T1 sequence (A0A286XUV5 22-936): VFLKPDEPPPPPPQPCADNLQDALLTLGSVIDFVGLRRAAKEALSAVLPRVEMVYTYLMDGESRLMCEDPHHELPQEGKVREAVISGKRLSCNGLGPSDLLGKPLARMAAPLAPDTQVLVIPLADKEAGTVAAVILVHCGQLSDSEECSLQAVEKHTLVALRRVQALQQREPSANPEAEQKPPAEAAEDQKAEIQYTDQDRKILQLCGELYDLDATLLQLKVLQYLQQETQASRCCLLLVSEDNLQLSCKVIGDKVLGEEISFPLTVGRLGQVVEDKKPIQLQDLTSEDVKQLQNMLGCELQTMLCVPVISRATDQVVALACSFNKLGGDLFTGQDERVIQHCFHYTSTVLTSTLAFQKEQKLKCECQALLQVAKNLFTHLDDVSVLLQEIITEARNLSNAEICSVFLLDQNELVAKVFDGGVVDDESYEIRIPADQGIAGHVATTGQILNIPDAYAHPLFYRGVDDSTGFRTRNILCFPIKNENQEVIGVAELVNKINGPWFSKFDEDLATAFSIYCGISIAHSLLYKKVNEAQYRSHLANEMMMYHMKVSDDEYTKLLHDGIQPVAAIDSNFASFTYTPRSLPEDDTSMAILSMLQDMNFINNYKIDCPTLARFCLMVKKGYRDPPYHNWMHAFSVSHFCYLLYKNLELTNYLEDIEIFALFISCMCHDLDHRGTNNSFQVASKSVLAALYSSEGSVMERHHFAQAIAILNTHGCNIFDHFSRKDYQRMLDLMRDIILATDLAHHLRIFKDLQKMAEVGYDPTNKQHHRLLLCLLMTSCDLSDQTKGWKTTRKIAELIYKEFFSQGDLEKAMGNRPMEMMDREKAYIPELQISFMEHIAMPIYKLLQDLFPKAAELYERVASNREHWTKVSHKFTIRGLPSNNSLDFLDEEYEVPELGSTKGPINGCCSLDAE
The experiment in a line: Inhibition of cyclic nucleotide PDE activity (Assay I), PDE2. The method, then: as §1, §2, §3, §4

For experiment [3], the system named is T2, PDE4.
T2 construct: IC50 on phosphodiesterase isozyme 4; other: mean ± S.E.M. (n)
Put plainly: Inhibition of cyclic nucleotide PDE activity (Assay I), PDE4, incl. Lineweaver-Burk analysis. Particulars: for IC50: mean ± S.E.M. (n), read-out: IC50 on phosphodiesterase isozyme 4. The procedure: as §1, §2, §3
The dissociation constant of inhibitor binding (Ki) value was determined from the equation of apparent Km as a function of the inhibitor concentration (insert in A and B, respectively). The slope of the equation is equal to the value of […] (where KM is Michaelis constant). The amounts of the total proteins are calculated based on the analytical method reported by Bradford. In FIGS. 1A and 1B, all enzyme activities are shown as nmole of substrate per mg of proteins per minute (nmole/mg/min) hydrolyzed.
The IC50 values of flavonoids and various reference drugs were calculated using non-linear regression analysis by the software SigmaPlot 7.0 (Sigma Chemical, St. Louis Mo., USA).

[4] abbreviates: mean ± S.E.M. (n), read-out: IC50 on phosphodiesterase isozyme 2.

Where two headings read alike, the source gives them in different places. Some results are limits rather than exact numbers.

As for `O=c1cc(-c2ccc(O)cc2)oc2cc(O)cc(O)c12` [Apigenin], the values for the IC50 in experiment [1], in experiment [2] (setting [4]) and in experiment [3] were 10.5 ± 3.5 µM, 16.7 ± 6.3 µM and > 100 µM, respectively.

With `COc1ccc(-c2coc3cc(O)cc(O)c3c2=O)cc1` [Biochanin A], the IC50 is > 100 µM in experiment [1] and 27.9 ± 4.1 µM in experiment [2] (setting [4]).

On to `O=c1cc(-c2ccccc2)oc2cc(O)cc(O)c12` [Chrysin], for which the IC50 in experiment [1], in experiment [2] (setting [4]) and in experiment [3] was > 100 µM in each case.

For `O=c1c(-c2ccc(O)cc2)coc2cc(O)ccc12` [Daidzein], the results for the IC50 in experiment [1], in experiment [2] (setting [4]) and in experiment [3] were 28.6 ± 8.5 µM, > 100 µM and > 100 µM, respectively.

On to `O=C1CC(c2ccc(O)c(O)c2)Oc2cc(O)cc(O)c21` (stereo not shown) [Eriodictyol], for which the concentration for half-maximal inhibition (IC50) in experiment [1] was 52.5 ± 17.7 µM; in experiment [2] (setting [4]) it was > 100 µM; in experiment [3], > 100 µM.

With `O=c1c(-c2ccc(O)cc2)coc2cc(O)cc(O)c12` [Genistein], the IC50 in experiment [1] was 12.9 ± 5.2 µM; in experiment [2] (setting [4]), 1.7 ± 0.2 µM.

For the molecule `COc1ccc(C2CC(=O)c3c(O)cc(O)cc3O2)cc1O` (stereo not shown) [Hesperetin], the IC50 in experiment [1] and in experiment [2] (setting [4]) was > 100 µM in each case. Further, the “mode of inhibition of PDE4 enzyme activity” value in experiment [3] (Lineweaver-Burk plot, cAMP substrate, FIG. 1A) is on record as “competitively inhibits”.

Consider `O=c1cc(-c2ccc(O)c(O)c2)oc2cc(O[C@@H]3O[C@H](CO)[C@@H](O)[C@H](O)[C@H]3O)cc(O)c12` [Luteolin-7-glucoside], for which the IC50 is > 100 µM in experiment [1], 35.1 ± 0.2 µM in experiment [2] (setting [4]) and 43 ± 5.3 µM in experiment [3].

`O=c1cc(-c2ccc(O)c(O)c2)oc2cc(O)cc(O)c12` [Luteolin]: the values for the IC50 in experiment [1], in experiment [2] (setting [4]) and in experiment [3] were 10.1 ± 1.8 µM, 13.3 ± 0.8 µM and 19.1 ± 2.4 µM, respectively.

Turning to `O=c1c(O)c(-c2cc(O)c(O)c(O)c2)oc2cc(O)cc(O)c12` [Myricetin], the IC50 in experiment [1] was 12.4 ± 3.3 µM; in experiment [2] (setting [4]), 12.8 ± 0.6 µM.

Consider `COc1cc(O)c2c(=O)c(-c3ccc(O)cc3)coc2c1` [Prunetin], for which the IC50 in experiment [1] and in experiment [2] was > 100 µM in each case.

As to `O=c1c(O)c(-c2ccc(O)c(O)c2)oc2cc(O)cc(O)c12` [Quercetin], the figures for the IC50 in experiment [1] and in experiment [2] (setting [4]) were 5.6 ± 1 µM and 17.9 ± 3.4 µM, respectively.

In general, IC50 refers to the concentration that inhibits the measured activity by half.
